Assay results published in PMC11601558, “SLC6A19 inhibition facilitates urinary neutral amino acid excretion and lowers plasma phenylalanine” (JCI Insight, 2024).
Where “and” joins values, the source holds several entries; their conditions need not be identical. Identical values can stand only once.

Tested on: T1, SLC7A5 co-expressed with SLC3A2
T1 construct: V5; expressed in transfected cells; host or cells: Flp-In T-Rex 293 cells (Thermo Fisher), SLC7A5 tetracycline-induced
Test: SLC7A5 isoleucine transport assay
Assay type: cell-based, human
Conditions: for SLC7A5 transport (Fig S2 curve point): technical replicates
Experimental: Supplementary Materials and Methods
Flp-In T-Rex 293 cells (Thermo Fisher) were engineered to induciblyexpress either V5-tagged human SLC1A5, SLC6A8 or SLC7A5 co-expressed with myc-DDK-tagged SLC3A2. Cells expressing SLC 1A5 or SLC6A8 were maintained in either DMEM or DMEM/F12 media supplemented with 10% FBS, 100 U/mL penicillin, 100 μg/mL streptomycin, 200 μg/mL hygromycin, and 10 μg/mL blasticidin. For cells expressing SLC7A5/SLC3A2, the media was additionally supplemented with 300 μg/mL geneticin. All cell lines were maintained at 37°C and 5% CO2. For transport experiments, all cell lines were plated in poly-D-lysine-coated 96-well plates at a density of 35,000 cells/well. One day after plating, expression of SLC1A5, SLC6A8 or SLC7A5 was induced by adding tetracycline at a concentration of 1 μg/mL. Cells were induced for 24 h prior to transport assays. […]
SLC7A5 isoleucine transport assay
Following a 24 h induction with tetracycline, cells were washed with sodium -free LCIS (20 mM HEPES, 140 mM choline chloride, 2.5 mM KCl, 1.8 mM CaCl2, 1 mM MgCl2, pH 7.4) before JNT-517 was added in 8-point concentration-response diluted in sodium-free LCIS. JPH203 (Selleckchem) was used as a positive control (34)at a concentration of 1.3 μM and DMSO was used as a negative control. Cells were incubated for 30 min at room temperature before a mixture of unlabeled L-isoleucine (Millipore Sigma) and 10 μCi/mL 4,5 -3H(N)-labeled L-isoleucine (American Radiolabeled Chemicals) was added at a concentration of 50 μM. After a 2 min incubation at room temperature, cells were washed once with sodium -free LCIS and lysed in scintillation fluid (PerkinElmer). The uptake of radioactive substrate was measured on a Microbeta2 microplate counter (PerkinElmer). […]

For NC(=O)N1CCC[C@@H](N(C(=O)NCc2ccc(OC(F)(F)F)cc2F)C2CC2)C1 [JNT-517], the “SLC7A5 transport (Fig S2 curve point)” value (0.0160037 uM) was 105 and 96.7, the “SLC7A5 transport (Fig S2 curve point)” value (0.048011 uM) was 106 and 104 and the “SLC7A5 transport (Fig S2 curve point)” value (0.144033 uM) was 99.2 and 100. For the same compound, the “SLC7A5 transport (Fig S2 curve point)” value (0.432099 uM) was 95.2 and 94.5, the “SLC7A5 transport (Fig S2 curve point)” value (1.2963 uM) was 99.2 and 103 and the “SLC7A5 transport (Fig S2 curve point)” value (3.88889 uM) was 101 and 96.2. The “SLC7A5 transport (Fig S2 curve point)” value (11.6667 uM) was 108 and 105, the “SLC7A5 transport (Fig S2 curve point)” value (35 uM) was 133 and 120 and the “inhibition of SLC7A5” value (concentrations up to 35 μM) was “did not inhibit”.
